# Calls of active or inactive are those of the source. No cut-off for these calls is given here.
# What was measured:
# [1] = test system: HepG2; assay: Cytotoxicity against human HepG2 cells assessed as inhibition of cell growth incubated for 24 hrs by CCK8 method; type: functional, cell-based; conditions: HepG2, 24 h
# [2] = Volume of distribution at steady state in Sprague-Dawley rat at 10 mg/kg, iv measured upto 24 hrs LC-MS/MS analysis; type: ADME, organism-based; conditions: in vivo, read-out: Vdss
# [3] = test system: Klebsiella pneumoniae; assay: Antibacterial activity against Klebsiella pneumoniae 15-4 assessed as inhibition of bacterial growth measured after 18 to 20 hrs by broth microdilution method; type: functional; conditions: time 18-20 hrs
# [4] = test system: Acinetobacter baumannii; assay: Antibacterial activity against Acinetobacter baumannii; type: functional
# [5] = test system: Acinetobacter baumannii; assay: Antibacterial activity against Acinetobacter baumannii 17-8 assessed as inhibition of bacterial growth measured after 18 to 20 hrs by broth microdilution method; type: functional; conditions: time 18-20 hrs
# [6] = test system: Jurkat; assay: Cytotoxicity against human Jurkat cells assessed as inhibition of cell growth at 100 uM incubated for 24 hrs by CCK8 method relative to control; type: functional
# [7] = Clearance in Sprague-Dawley rat at 10 mg/kg, iv measured upto 24 hrs LC-MS/MS analysis; type: ADME, organism-based; conditions: in vivo
# [8] = test system: Pseudomonas aeruginosa; assay: Antibacterial activity against Pseudomonas aeruginosa T-2022 assessed as inhibition of bacterial growth measured after 18 to 20 hrs by broth microdilution method; type: functional; conditions: time 18-20 hrs
# [9] = test system: Pseudomonas aeruginosa; assay: Antibacterial activity against Pseudomonas aeruginosa 19-5 assessed as inhibition of bacterial growth measured after 18 to 20 hrs by broth microdilution method; type: functional; conditions: time 18-20 hrs
# [10] = Tmax in Sprague-Dawley rat at 10 mg/kg, po measured upto 24 hrs LC-MS/MS analysis; type: ADME, organism-based; conditions: in vivo
# [11] = test system: Pseudomonas aeruginosa; assay: Antibacterial activity against Pseudomonas aeruginosa 17-1 assessed as inhibition of bacterial growth measured after 18 to 20 hrs by broth microdilution method; type: functional; conditions: time 18-20 hrs
# [12] = test system: Pseudomonas aeruginosa; assay: Antibacterial activity against Pseudomonas aeruginosa; type: functional
# [13] = AUC (0 to t) in Sprague-Dawley rat at 10 mg/kg, iv measured upto 24 hrs LC-MS/MS analysis; type: ADME, organism-based; conditions: in vivo, iv, 10 mg/kg, 24 h
# [14] = test system: Klebsiella pneumoniae; assay: Antibacterial activity against Klebsiella pneumoniae 15-1 assessed as inhibition of bacterial growth measured after 18 to 20 hrs by broth microdilution method; type: functional; conditions: time 18-20 hrs
# [15] = test system: Escherichia coli; assay: Antibacterial activity against Escherichia coli ATCC 35218 assessed as inhibition of bacterial growth measured after 18 to 20 hrs by broth microdilution method; type: functional; conditions: time 18-20 hrs
# [16] = test system: Acinetobacter baumannii; assay: Antibacterial activity against Acinetobacter baumannii 17-2 assessed as inhibition of bacterial growth measured after 18 to 20 hrs by broth microdilution method; type: functional; conditions: time 18-20 hrs
# [17] = test system: Escherichia coli; assay: Antibacterial activity against Escherichia coli 14-4 assessed as inhibition of bacterial growth measured after 18 to 20 hrs by broth microdilution method; type: functional; conditions: time 18-20 hrs
# [18] = Cytotoxicity against HEK293T cells assessed as inhibition of cell growth incubated for 24 hrs by CCK8 method; type: toxicity, cell-based, HEK-293T; conditions: human
# [19] = test system: HepG2; assay: Cytotoxicity against human HepG2 cells assessed as inhibition of cell growth at 100 uM incubated for 24 hrs by CCK8 method relative to control; type: functional
# [20] = test system: Klebsiella pneumoniae; assay: Antibacterial activity against Klebsiella pneumoniae 15-5 assessed as inhibition of bacterial growth measured after 18 to 20 hrs by broth microdilution method; type: functional; conditions: time 18-20 hrs
# [21] = test system: Jurkat; assay: Cytotoxicity against human Jurkat cells assessed as inhibition of cell growth incubated for 24 hrs by CCK8 method; type: functional, cell-based
# [22] = Oral bioavailability in Sprague-Dawley rat at 10 mg/kg measured upto 24 hrs LC-MS/MS analysis; type: ADME, organism-based; conditions: in vivo, po, 10 mg/kg, 24 h
# [23] = Cytotoxicity against HEK293T cells assessed as inhibition of cell growth at 100 uM incubated for 24 hrs by CCK8 method relative to control; type: toxicity, cell-based, HEK-293T; conditions: human
# [24] = Cmax in Sprague-Dawley rat at 10 mg/kg, po measured upto 24 hrs LC-MS/MS analysis; type: ADME, organism-based; conditions: in vivo
# [25] = test system: Escherichia coli; assay: Antibacterial activity against Escherichia coli 14-2 assessed as inhibition of bacterial growth measured after 18 to 20 hrs by broth microdilution method; type: functional; conditions: time 18-20 hrs
# [26] = Half life in Sprague-Dawley rat at 10 mg/kg, iv measured upto 24 hrs LC-MS/MS analysis; type: ADME, organism-based; conditions: in vivo
# [27] = AUC (0 to t) in Sprague-Dawley rat at 10 mg/kg, po measured upto 24 hrs LC-MS/MS analysis; type: ADME, organism-based; conditions: in vivo, po, 10 mg/kg, 24 h
# [28] = MRT in Sprague-Dawley rat at 10 mg/kg, iv measured upto 24 hrs LC-MS/MS analysis; type: ADME, organism-based; conditions: in vivo
# [29] = test system: Pseudomonas aeruginosa; assay: Antibacterial efficacy against multi drug resistant Pseudomonas aeruginosa T-2022-D2-048 infected in cyclophosphamide-induced neutropenic thigh infection ICR mouse model assessed as decrease in bacterial burden administered as iv dose measured after 24 hrs; type: functional, organism-based; conditions: dose 3-12 mg/kg
# [30] = MRT in Sprague-Dawley rat at 10 mg/kg, po measured upto 24 hrs LC-MS/MS analysis; type: ADME, organism-based; conditions: in vivo
# [31] = Half life in Sprague-Dawley rat at 10 mg/kg, po measured upto 24 hrs LC-MS/MS analysis; type: ADME, organism-based; conditions: in vivo
compound,measurement,setting,value
Cc1nc(-c2ccc(C(C)(C)C)cc2)ncc1C(=O)N[C@@H](CCN)C(=O)N(C)[C@@H]1C(=O)N[C@@H](C)C(=O)N[C@H](C(=O)NCC#N)Cc2ccc(OCCN)c(c2)-c2cc1ccc2OCCN.Cl.Cl.Cl.Cl,IC50,[1],> 100 µM
same,Vd,[2],0.423 L/kg
same,MIC,[3],0.125 mg/L
same,MIC90,[4],4 mg/L
same,MIC,[5],1 mg/L
same,inhibition at 100 µM,[6],20.8%
same,clearance,[7],0.163 L/h/kg
same,MIC,[8],8 mg/L
same,MIC,[9],16 mg/L
same,Tmax,[10],1.17 h
same,MIC,[11],32 mg/L
same,MIC90,[12],16 mg/L
same,AUCt,[13],61.496 µg·h/mL
same,MIC,[14],≤ 0.03 mg/L
same,MIC,[15],≤ 0.03 mg/L
same,MIC,[16],2 mg/L
same,MIC,[17],≤ 0.03 mg/L
same,IC50 at 24 h,[18],> 100 µM
same,inhibition at 100 µM,[19],-3.46%
same,MIC,[20],0.06 mg/L
same,IC50,[21],> 100 µM
same,F,[22],0.1%
same,"inhibition at 24 h, 100 µM",[23],37.9%
same,Cmax,[24],3.37 ng/mL
same,MIC,[25],≤ 0.03 mg/L
same,half-life,[26],1.51 h
same,AUCt,[27],0.00901 µg·h/mL
same,MRT,[28],2.62 h
same,Activity,[29],inactive
same,MRT,[30],2.69 h
same,half-life,[31],1.56 h
